Reference: patent EP3628663A1, “ANTIVIRAL COMPOUNDS” (priority 2018, dated 2020)
Where two headings read alike, the source gives them in different places.

Key:
HAd-C5-GFP = test: Fluorescent plaque forming assay of adenoviral propagation (virus spread); type: cell-based; settings: HEK293 cells
Procedure: Adenoviral propagation was quantified by fluorescent plaque forming assay with GFP expressing HAd-C5 vector in the presence of the compound as a measure of virus spread through multiple rounds of infection.
HEK293 cells were infected with 0.1 physical particles per cell (pp/cell) of E1-deficient GFP expressing HAd-C5-GFP vector for 24 hours followed by removal of the inoculums and overlay with 1% agarose supplemented with vehicle only (DMSO) or 5 µM of the compound of formula (IIIa).
Six days after infection, plaque sizes were measured by epifluorescence microscopy using Image J.
Cidofovir™, the standard clinical drug used against adenovirus infections in the clinic, is also included in this test.
The compounds were used at a concentration of 5 µM. Cidofovir was in particular used at even higher concentration, i.e. 10 and 20 µM.
DMSO was used as negative control.
Statistical analysis was carried out using unpaired Student t-test.

protein VI = test: Ubiquitylation of RFP-tagged protein VI in NEDD4.2-GFP expressing cells (RFP-trap, western blot); type: cell-based; settings: increasing amounts (0, 2, 5, 10, 25 µM) for 2h; NEDD4.2-GFP cells
Procedure: Stably expressing NEDD4.2-GFP cells were transfected with an expression vector encoding RFP-tagged protein VI WT (including the PPxY targeted by NEDD4 ubiquitin ligases through WW-domains, which are the target of the compounds) or protein VI M1 (with the PPxY targeted by NEDD4 ubiquitin ligases through WW-domains mutated to PGAA) and treated with increasing amounts of the compound of formula (IIIa) for 2h. RFP stands for Red Fluorescent Protein.
Protein VI was immunoprecipitated from drug treated cells using RFP-trap and analyzed by western blotting with anti-ubiquitin antibodies.
(§1) Samples were analyzed by western blot using anti-protein VI antibodies described in Martinez et al., J Virol. 2015 Feb;89(4):2121-35.

recombinant NEDD4.2 = biological target: T1, recombinant NEDD4.2 (Homo sapiens, UniProt Q96PU5); test: In vitro ubiquitylation of protein VI released from adenovirus particles with recombinant NEDD4.2; type: biochemical; settings: high concentrations (25 µM); recombinant NEDD4.2, 1h at 30°C
T1 sequence (Q96PU5 1-975): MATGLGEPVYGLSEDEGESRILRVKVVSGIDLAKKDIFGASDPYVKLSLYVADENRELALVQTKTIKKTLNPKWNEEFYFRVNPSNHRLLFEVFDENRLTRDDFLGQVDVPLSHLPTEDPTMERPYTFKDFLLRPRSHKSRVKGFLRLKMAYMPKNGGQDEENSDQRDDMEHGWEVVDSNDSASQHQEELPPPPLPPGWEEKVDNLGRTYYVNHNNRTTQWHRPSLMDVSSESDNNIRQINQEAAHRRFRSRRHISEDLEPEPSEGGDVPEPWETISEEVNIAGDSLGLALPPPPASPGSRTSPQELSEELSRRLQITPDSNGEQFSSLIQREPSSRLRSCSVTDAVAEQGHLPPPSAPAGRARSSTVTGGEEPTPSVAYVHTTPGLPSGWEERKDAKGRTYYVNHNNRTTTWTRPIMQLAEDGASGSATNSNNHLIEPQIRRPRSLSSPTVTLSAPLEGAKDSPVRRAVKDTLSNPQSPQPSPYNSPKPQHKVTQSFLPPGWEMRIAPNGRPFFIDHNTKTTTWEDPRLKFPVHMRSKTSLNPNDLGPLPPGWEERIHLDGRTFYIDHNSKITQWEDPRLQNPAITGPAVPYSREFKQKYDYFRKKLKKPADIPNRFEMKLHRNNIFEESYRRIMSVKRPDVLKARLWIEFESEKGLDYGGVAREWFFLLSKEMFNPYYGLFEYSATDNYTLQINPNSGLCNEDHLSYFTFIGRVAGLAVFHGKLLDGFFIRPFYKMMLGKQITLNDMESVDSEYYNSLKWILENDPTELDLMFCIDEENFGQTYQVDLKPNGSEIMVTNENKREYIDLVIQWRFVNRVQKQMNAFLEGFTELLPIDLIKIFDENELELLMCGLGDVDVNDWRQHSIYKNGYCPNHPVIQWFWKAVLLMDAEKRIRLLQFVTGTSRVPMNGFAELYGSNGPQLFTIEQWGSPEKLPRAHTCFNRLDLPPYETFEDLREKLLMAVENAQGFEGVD
Procedure: For in vitro ubiquitylation reactions, purified Adenovirus particles were treated with mild heat to release protein VI as previously described in Wodrich et al. (2010 - PLoS Pathog. 6, e1000808), and in vitro ubiquitylation reactions were supplemented with recombinant NEDD4.2 and DMSO or the compound of formula (IIIa) and carried out for 1h at 30°C or left on ice.
as §1

GFP-NEDD4.1 = test: Localization of GFP-NEDD4.1 in U2OS cells (fluorescence microscopy); type: cell-based, Homo sapiens; settings: U2OS cells stably expressing GFP-NEDD4.1, versus DMSO
Source text: (§2) U2OS cells (ATCC® HTB-96™) (Homo sapiens bone osteosarcoma) stably expressing low levels of GFP-NEDD4.1 or GFP-NEDD4.2 were generated through single copy flp-FRT integration (Bosse et al., Methods Mol Biol. 2013;1064:153-69.) and treated with the compound of formula (IIIa) or the control DMSO.

GFP-NEDD4.2 = test: Localization of GFP-NEDD4.2 in U2OS cells (fluorescence microscopy); type: cell-based, Homo sapiens; settings: U2OS cells stably expressing GFP-NEDD4.2, versus untreated cells
Source text: as §2

NEDD4.2-GFP = test: Association of incoming fluorescently labelled adenoviruses with NEDD4.2-GFP (fluorescence microscopy); type: cell-based, Homo sapiens; settings: 10µM; 15-30 min p.i.
Procedure: GFP-NEDD4.2 expressing cells were infected in absence or presence of 10µM of the compound of formula (IIIa) with fluorescently labelled viruses and association between viruses and NEDD4.2-GFP was quantified using fluorescence microscopy.

WW3-NEDD 4.2 peptide = WW3-NEDD 4.2 peptide (Homo sapiens, UniProt Q96PU5); test: MicroScale thermophoresis (MST) binding to FAM-labelled WW3 peptide of NEDD4.2; settings: 100 nM FAM-labelled peptide, 1x PBS pH 7.4, 5 % DMSO, 0.1 % Pluronic F-127, 25°C
WW3-NEDD 4.2 peptide, sequence (Q96PU5 with tags, fused parts or gaps): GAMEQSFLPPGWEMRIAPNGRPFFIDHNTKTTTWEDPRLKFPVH
Procedure: (§3) For the MicroScale Thermophoresis (MST) experiments 1 mg of each FAM-labeled WW3_Nedd.4.1 ([…] KIPAH = SEQ ID NO: 1) and WW3_Nedd.4.2 peptide ([…] […] = SEQ ID NO: 2) (FAM = Fluorescein amidite) was used at >80% purity.
(§4) MicroScale thermophoresis binding experiments were carried out with final 100 nM FAM-labelled WW3_Nedd.4.1 and WW3_Nedd.4.2 in binding buffer (1x PBS pH 7.4, 5 % DMSO, 0.1 % Pluronic F-127). The concentration range of the compound of formula (IIIa) is indicated here-after: Table 1
(§5) The MST analyses were performed at 40 % MST power, 100 % LED power in standard capillaries on a Monolith NT.115 blue/green device at 25°C (NanoTemper Technologies, Munich, Germany) in duplicate technical runs in the same capillary. Thermophoresis + Tjump was analysed. The recorded fluorescence was normalised to fraction bound (0 = unbound, 1 = bound), and processed using the GraphPad Prism® 6 software and fitted using the KD fit formula derived from the law of mass action.

WW3-NEDD 4.1 peptide = WW3-NEDD 4.1 peptide (Homo sapiens, UniProt P46934); test: MicroScale thermophoresis (MST) binding to FAM-labelled WW3 peptide of NEDD4.1
WW3-NEDD 4.1 peptide, sequence (P46934 834-878): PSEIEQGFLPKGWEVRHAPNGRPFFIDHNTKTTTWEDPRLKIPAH
Procedure: as §3, §4, §5

U2OS cells = test: Ubiquitin proteome by diGly peptide enrichment and LC-MS/MS; type: cell-based, Homo sapiens; settings: 24h, compared to DMSO treated control cells
Procedure: U2OS Cells were treated for 24h with two different concentrations of the compound of formula (IIIa) (2µM and 10µM) and were subjected to Mass Spec. analysis following diGly peptide enrichment to obtain changes in the Ubiquitin proteome.
Briefly, cells were collected following treatment (as above) and protein extracts generated using acetone precipitation. Total proteins were trypsin-digested and the resulting peptides purified through anti di-Gly affinity chromatography prior being sequenced by LC-MS/MS.

WW3-domain of NEDD4 = biological target: T2, WW3-domain of NEDD4 (Homo sapiens, UniProt P46934); test: Solution NMR interaction study with synthetic WW3-domain peptide of NEDD4; type: binding; settings: equimolar amounts of compound and NEDD4 peptide
T2 construct: a peptide corresponding to the 45 amino acids of WW3-domain of NEDD4; made in house; host or cells: chemical synthesis
T2 sequence (P46934 834-878): as above

SMILES | inhibition of adenoviral propagation (plaque size) (HAd-C5-GFP; 10 µM and 20 µM (highest non-cytotoxic concentrations), plaque size) | ubiquitylation of protein VI in cells (protein VI) | protein VI ubiquitylation in vitro (recombinant NEDD4.2) | anti-adenoviral activity (plaque size) (HAd-C5-GFP; 5 µM, 0.1 pp/cell HAd-C5-GFP, plaque size six days after infection, compared to DMSO) | NEDD4.1 localization (GFP-NEDD4.1) | NEDD4.2 localization (GFP-NEDD4.2) | recruitment of NEDD4.2 to incoming AdV particles (NEDD4.2-GFP) | Kd (WW3-NEDD 4.2 peptide) [µM] | Kd (WW3-NEDD 4.1 peptide; MST, 100 nM FAM-labelled peptide, 1x PBS pH 7.4, 5 % DMSO, 0.1 % Pluronic F-127, 25°C, read-out: WW3-NEDD 4.1 peptide KD) [µM] | higher affinity to the WW3 peptide domain target compared to the Imidazole control (WW3-NEDD 4.1 peptide; ratio of MST KD values, WW3-NEDD4.1 and WW3-NEDD4.2) | ubiquitylation of cellular proteins (U2OS cells; 2µM) | ubiquitylation of cellular proteins (U2OS cells; 10µM) | interaction with the NEDD4 peptide (NMR chemical shift change) (WW3-domain of NEDD4) | Kd (WW3-NEDD 4.1 peptide) [µM]
Nc1ccn(C[C@@H](CO)OCP(=O)(O)O)c(=O)n1 [Cidofovir, reference compound] | did not show significant inhibition | – | – | – | – | – | – | – | – | – | – | – | – | –
O=C(/C=C(\C(=O)c1ccc(Cl)cc1Cl)n1ccnc1)c1ccc(Cl)cc1Cl [Compound of formula (IIIa), (E)-1,4-Bis(2,4-dichlorophenyl)-2-(1H-imidazol-1-yl)but-2-ene-1,4-dione] | – | gradually impaired ubiquitylation of protein VI | prevented protein VI ubiquitylation in vitro | effective anti-adenoviral activity | became largely immobile and relocated to a perinuclear region | accumulated strongly at cell-cell-contact sites as well as in a distinct perinuclear region | prevented the recruitment of NEDD4.2 | 0.12 ± 0.039 | 0.058 ± 0.022 | 100-1000 fold | protein ubiquitylation is reduced or increased for several cellular proteins | preferentially increases ubiquitylation of several cellular proteins | interacts with the NEDD4 peptide | –
c1c[nH]cn1 [Imidazole (control), Imidazole, reference compound] | – | – | – | – | – | – | – | 90.4 ± 38.6 | – | – | – | – | – | 88.9 ± 28.4
